# Experimental data published in the C3SDB collision cross section collection.
# Conditions: [M+H]+; instrument: TW
row,SMILES,collision cross section (N2)
1,Cn1c([N+](=O)[O-])cnc1COC(N)=O [Ronidazole],131.6 Å²
2,CCC(=O)c1ccc2c(c1)N(CCCN(C)C)c1ccccc1S2 [Propionylpromazine],182.8 Å²
3,C[C@]12C=CC3=C4CCC(=O)C=C4CC[C@H]3[C@@H]1CC[C@@H]2O [17B-Trenbolone],163.3 Å²
4,CCOCCOC(=O)C(C)Oc1ccc(Oc2ncc(C(F)(F)F)cc2Cl)cc1 (centres undefined) [Haloxyfop-2-ethoxyethyl],193.53 Å²
5,CC(C)(C)NCC(O)c1cc(Cl)c(N)c(Br)c1 (centres undefined) [Bromchlorbuterol],165.2 Å²
6,Cc1noc(NS(=O)(=O)c2ccc(N)cc2)c1C [Sulfisoxazole],157.4 Å²
7,Nc1ccc(S(=O)(=O)c2ccc(N)cc2)cc1 [Dapsone],149.9 Å²
8,CC(C)c1cc(Oc2ccccc2)cc(C(C)C)c1NC(=S)NC(C)(C)C [Diafenthiuron],199.75 Å²
9,OC(Cn1cncn1)(c1ccc(F)cc1)c1ccccc1F (centres undefined) [Flutriafol],163.97 Å²
10,CCC(C)(CC)c1cc(NC(=O)c2c(OC)cccc2OC)on1 [Isoxaben],184.93 Å²
11,C[C@]12CC[C@H]3[C@@H](CCC4=CC(=O)CC[C@H]43)[C@@H]1CC[C@H]2O [17a-Nortestosterone],165.7 Å²
12,CCC[C@@H]1C[C@@H](C(=O)N[C@@H]([C@H]2O[C@H](SC)[C@H](O)[C@@H](O)[C@H]2O)[C@@H](C)O)N(C)C1 [Lincomycin],201.8 Å²
13,CSC1=N[C@@](C)(c2ccccc2)C(=O)N1Nc1ccccc1 [Fenamidone],171.15 Å²
14,O=C(NC(=O)c1ccccc1Cl)Nc1ccc(OC(F)(F)F)cc1 [Triflumuron],169.88 Å²
15,Ic2ccc1\N=C(\OCCC)N(C(=O)c1c2)CCC [Proquinazid],169.35 Å²
16,O=C(NC(=O)c1c(F)cccc1F)Nc1cc(Cl)c(OC(F)(F)C(F)C(F)(F)F)cc1Cl (centres undefined) [Lufenuron],198.53 Å²
17,Nc1ccc(S(=O)(=O)Nc2ccc(Cl)nn2)cc1 [Sulfachloropyridazine],156.9 Å²
18,CC(C)NCC(O)c1ccc(N)c(C#N)c1 (centres undefined) [Cimaterol],155.4 Å²
19,CC(C)N(C(=O)CCl)c1ccccc1 [Propachlor],142.07 Å²
20,CC(C(=O)O)c1cccc(C(=O)c2ccccc2)c1 (centres undefined) [Ketoprofen],155.4 Å²
21,CCS(=O)(=O)CCSP(=O)(OC)OC [Demeton-S-methyl- sulfone],143.66 Å²
22,COc1ncnc(NS(=O)(=O)c2ccc(N)cc2)c1OC [Sulfadoxine],166.6 Å²
23,Cc1ccsc1/C=C/C1=NCCCN1C [Morantel],149.7 Å²
24,COC(=O)N(C(=O)N1CO[C@@]2(C(=O)OC)Cc3cc(Cl)ccc3C2=N1)c1ccc(OC(F)(F)F)cc1 [Indoxacarb],207.03 Å²

row,SMILES,collision cross section (N2)
1,CCCCOC(=O)[C@@H](C)Oc1ccc(Oc2ccc(C(F)(F)F)cn2)cc1 [Fluazafop-P-butyl],194.8 Å²
2,CCC(C)(C)NCC(O)c1cc(Cl)c(N)c(Cl)c1 (centres undefined) [Clenpenterol],165 Å²
3,CC1COC(Cn2cncn2)(c2ccc(Oc3ccc(Cl)cc3)cc2Cl)O1 (centres undefined) [Difenoconazole],198.48 Å²
4,Cc1c(Cl)cccc1Nc1ccccc1C(=O)O [Tolfenamic acid],153.7 Å²
5,Cc1cc(C)nc(NS(=O)(=O)c2ccc(N)cc2)n1 [Sulfadimidine],159.7 Å²
6,Cc1nn(-c2cc(NS(C)(=O)=O)c(Cl)cc2Cl)c(=O)n1C(F)F [Sulfentrazone],173.63 Å²
7,CC(C)Oc1cc(-n2nc(C(C)(C)C)oc2=O)c(Cl)cc1Cl [Oxadiazon],182.17 Å²
8,Cc1cc(C2CC2)nc(Nc2ccccc2)n1 [Cyprodinil],152.07 Å²
9,Nc1nc(N)nc(NC2CC2)n1 [Cyromazine],133.23 Å²
10,CC[C@H]1OC(=O)C[C@@H](O)[C@H](C)[C@@H](O[C@@H]2O[C@H](C)[C@@H](O[C@H]3C[C@@](C)(O)[C@@H](O)[C@H](C)O3)[C@H](N(C)C)[C@H]2O)[C@@H](CC=O)C[C@@H](C)C(=O)/C=C/C(C)=C/[C@@H]1CO[C@@H]1O[C@H](C)[C@@H](O)[C@@H](OC)[C@H]1OC [Tylosine],332.4 Å²
11,CC1CCc2cc(F)cc3c(=O)c(C(=O)O)cn1c23 (centres undefined) [Flumequine],147.6 Å²
12,COP(=O)(OC)C(O)C(Cl)(Cl)Cl (centres undefined) [Trichlorfon],136.12 Å²
13,CC12C=CC3=C4CCC(=O)C=C4CCC3C1CCC2O (centres undefined) [17a-Trenbolone],163.3 Å²
14,Nc1ccc(S(=O)(=O)Nc2ncccn2)cc1 [Sulfadiazine],148.7 Å²
15,C#CCOc1ccc(CCNC(=O)C(OCC#C)c2ccc(Cl)cc2)cc1OC (centres undefined) [Mandipropamid],195.15 Å²
16,COC(=O)Nc1nc2ccccc2[nH]1 [Carbendazim],134.94 Å²
17,Cc1ccc(C(=O)c2ccc(CC(=O)O)n2C)cc1 [Tolmetin],156.7 Å²
18,CC(C)NCC(O)COc1cccc2[nH]c3ccccc3c12 (centres undefined) [Carazolol],165.5 Å²
19,CCn1cc(C(=O)O)c(=O)c2ccc(C)nc21 [Nalidixic acid],141.4 Å²
20,COc1nc(C)nc(NC(=O)NS(=O)(=O)c2ccccc2Cl)n1 [Chlorsulfuron],175.29 Å²
21,Cc1nnc(NS(=O)(=O)c2ccc(N)cc2)s1 [Sulfamethizole],152.2 Å²
22,Cc1cc(C)nc(Nc2ccccc2)n1 [Pyrimethanil],142.95 Å²
23,CC1(C)CCC(Cc2ccc(Cl)cc2)C1(O)Cn1cncn1 (centres undefined) [Metconazole],168.62 Å²
24,Oc1ccc2nc(-c3cscn3)[nH]c2c1 [Hydroxythiabendazole],137.2 Å²

row,SMILES,collision cross section (N2)
1,CCOP(=S)(OCC)Oc1cnc2ccccc2n1 [Quinalphos],165.1 Å²
2,CO/C=C(/C(=O)OC)c1ccccc1Oc1cc(Oc2ccccc2C#N)ncn1 [Azoxystrobin],195.75 Å²
3,CCn1cc(C(=O)O)c(=O)c2cc3c(cc21)OCO3 [Oxolinic acid],147.8 Å²
4,C=C1C[C@@]23CC[C@H]4[C@@](C)(CCC[C@@]4(C)C(=O)O)[C@@H]2CC[C@]1(O)C3 [Steviol],173.38 Å²
5,O=C(NC(=O)c1c(F)cccc1F)Nc1cc(Cl)c(OC(F)(F)C(F)F)c(Cl)c1 [Hexaflumuron],188.22 Å²
6,CC(C)c1ccc(NC(=O)N(C)C)cc1 [Isoproturon],150.75 Å²
7,CC1(C)CC/C(=C\c2ccc(Cl)cc2)C1(O)Cn1cncn1 (centres undefined) [Triticonazole],179.18 Å²
8,Cc1cnc(/N=C(\O)C2=C(O)c3ccccc3S(=O)(=O)N2C)s1 [Meloxicam],174.9 Å²
9,C=CCOC(=O)C(C)(C)OC(=O)c1cc(-n2c(=O)cc(C(F)(F)F)n(C)c2=O)ccc1Cl [Butafenacil],208.59 Å²
10,CC(CCc1ccc(O)cc1)NCC(O)c1ccc(O)cc1 (centres undefined) [Ractopamine],168.9 Å²
11,CCC(NC(C)C)C(O)c1ccc(O)c2[nH]c(=O)ccc12 (centres undefined) [Procaterol],168 Å²
12,CC1(C(=O)Nc2ccc(O)c(Cl)c2Cl)CCCCC1 [Fenhexamid],164.82 Å²
13,CNC(=O)Oc1cccc(N=CN(C)C)c1 [Formetanate],153.76 Å²
14,C[C@H](NCCc1ccc(O)cc1)[C@H](O)c1ccc(O)cc1 [Ritodrine],165.8 Å²
15,Cc1ncc([N+](=O)[O-])n1C [Dimetridazole],116.4 Å²
16,CC(C)(C)NCC(O)c1ccc(O)c(CO)c1 (centres undefined) [Salbutamol],158.3 Å²
17,CC(Cc1ccc(C(C)(C)C)cc1)CN1CCCCC1 (centres undefined) [Fenpropidin],166.39 Å²
18,Clc1ccccc1-c1nnc(-c2ccccc2Cl)nn1 [Clofentezine],161.9 Å²
19,CN(C)[C@@H]1C(O)=C(C(N)=O)C(=O)[C@@]2(O)C(O)=C3C(=O)c4c(O)cccc4[C@@](C)(O)[C@H]3[C@H](O)[C@@H]12 [Oxytetracycline],202.3 Å²
20,CCc1nn(C)c(C(=O)NCc2ccc(C(C)(C)C)cc2)c1Cl [Tebufenpyrad],191.25 Å²
21,CN(C)[C@@H]1C(O)=C(C(N)=O)C(=O)[C@@]2(O)C(O)=C3C(=O)c4c(O)cccc4[C@@](C)(O)[C@H]3C[C@@H]12 [Tetracycline],197.3 Å²
22,C=C(C)C1Cc2c(ccc3c2OC2COc4cc(OC)c(OC)cc4C2C3=O)O1 (centres undefined) [Rotenone],195.01 Å²

# Conditions: [M+H]+; instrument: DT; single field, calibrated with Agilent tune mix (Agilent)
row,SMILES,collision cross section (N2)
1,CCCCCCCCCC/C=C\CCCCCCCCCC(=O)O[C@H](COC(=O)CCCCCCCCCCCCC)COP(=O)(O)OCCN [PE(36:1)],281.3 Å²

# Same assay, conditions: [M+Na]+; instrument: DT; single field, calibrated with Agilent tune mix (Agilent)
row,SMILES,collision cross section (N2)
1,CC/C=C\C/C=C\C/C=C\C/C=C\CCCCC(=O)OC[C@H](COP(=O)(O)OCCN)OC(=O)CCCCC/C=C\C/C=C\C/C=C\C/C=C\CCCCC [PE(40:8)],287.3 Å²
2,CCCCCCCCCC/C=C\CCCCCCCCCC(=O)O[C@H](COC(=O)CCCCCCCCCCCCC)COP(=O)(O)OCCN [PE(36:1)],287.5 Å²

# Same assay, conditions: [M-H]-; instrument: DT; single field, calibrated with Agilent tune mix (Agilent)
row,SMILES,collision cross section (N2)
1,CCCCCCCCCC/C=C\CCCCCCCCCC(=O)O[C@H](COC(=O)CCCCCCCCCCCCC)COP(=O)(O)OCCN [PE(36:1)],269.9 Å²

# Conditions: [M+Na]+; instrument: DT; stepped-field
row,SMILES,collision cross section (N2)
1,CC/C=C\C/C=C\C/C=C\C/C=C\CCCCC(=O)OC[C@H](COP(=O)(O)OCCN)OC(=O)CCCCC/C=C\C/C=C\C/C=C\C/C=C\CCCCC [PE(40:8)],289.2 Å²
2,CCCCCCCCCC/C=C\CCCCCCCCCC(=O)O[C@H](COC(=O)CCCCCCCCCCCCC)COP(=O)(O)OCCN [PE(36:1)],288.5 Å²

# Conditions: [M+H]+; instrument: TW; calibrated with phosphatidylcholines (ESI+) and phosphatidylethanolamines (ESI-)
row,SMILES,collision cross section (N2)
1,CC/C=C\C/C=C\C/C=C\C/C=C\CCCCC(=O)OC[C@H](COP(=O)(O)OCCN)OC(=O)CCCCC/C=C\C/C=C\C/C=C\C/C=C\CCCCC [PE(40:8)],280.7 Å²
2,CCCCCCCCCC/C=C\CCCCCCCCCC(=O)O[C@H](COC(=O)CCCCCCCCCCCCC)COP(=O)(O)OCCN [PE(36:1)],278.7 Å²

# Same assay, conditions: [M-H]-; instrument: TW; calibrated with phosphatidylcholines (ESI+) and phosphatidylethanolamines (ESI-)
row,SMILES,collision cross section (N2)
1,CCCCCCCCCC/C=C\CCCCCCCCCC(=O)O[C@H](COC(=O)CCCCCCCCCCCCC)COP(=O)(O)OCCN [PE(36:1)],268.8 Å²
